BigSolDB 2.1

## c1ccc2oc(CSCc3nc4ccccc4o3)nc2c1
In chlorobenzene, 274.85 K
  solubility (mole fraction): 0.00424
In chlorobenzene, 278.15 K
  solubility (mole fraction): 0.00514
In chlorobenzene, 283.15 K
  solubility (mole fraction): 0.00684
In chlorobenzene, 287.95 K
  solubility (mole fraction): 0.00889
In chlorobenzene, 292.95 K
  solubility (mole fraction): 0.0119
In chlorobenzene, 298.35 K
  solubility (mole fraction): 0.0157
In chlorobenzene, 303.25 K
  solubility (mole fraction): 0.0205
In chlorobenzene, 308.15 K
  solubility (mole fraction): 0.0262
In chlorobenzene, 313.25 K
  solubility (mole fraction): 0.0341
In chlorobenzene, 318.05 K
  solubility (mole fraction): 0.0427
In ethanol, 274.15 K
  solubility (mole fraction): 0.00741
In ethanol, 278.15 K
  solubility (mole fraction): 0.00978
In ethanol, 283.15 K
  solubility (mole fraction): 0.014
In ethanol, 288.35 K
  solubility (mole fraction): 0.02
In ethanol, 291.15 K
  solubility (mole fraction): 0.0236
In ethanol, 293.15 K
  solubility (mole fraction): 0.0279
In ethanol, 295.55 K
  solubility (mole fraction): 0.0318
In ethanol, 298.15 K
  solubility (mole fraction): 0.0377
In ethanol, 300.25 K
  solubility (mole fraction): 0.0435
In ethanol, 302.95 K
  solubility (mole fraction): 0.052
In ethanol, 305.15 K
  solubility (mole fraction): 0.0578
In ethanol, 308.15 K
  solubility (mole fraction): 0.0704
In isopropanol, 278.15 K
  solubility (mole fraction): 0.00231
In isopropanol, 283.15 K
  solubility (mole fraction): 0.00333
In isopropanol, 289.15 K
  solubility (mole fraction): 0.00523
In isopropanol, 293.15 K
  solubility (mole fraction): 0.00703
In isopropanol, 298.15 K
  solubility (mole fraction): 0.0105
In isopropanol, 303.15 K
  solubility (mole fraction): 0.014
In isopropanol, 308.15 K
  solubility (mole fraction): 0.0194
In isopropanol, 313.15 K
  solubility (mole fraction): 0.0268
In isopropanol, 318.15 K
  solubility (mole fraction): 0.0372
In isopropanol, 323.15 K
  solubility (mole fraction): 0.051
In n-butanol, 278.35 K
  solubility (mole fraction): 0.00349
In n-butanol, 283.15 K
  solubility (mole fraction): 0.00494
In n-butanol, 288.15 K
  solubility (mole fraction): 0.00698
In n-butanol, 293.25 K
  solubility (mole fraction): 0.00986
In n-butanol, 298.15 K
  solubility (mole fraction): 0.0142
In n-butanol, 303.25 K
  solubility (mole fraction): 0.0199
In n-butanol, 308.15 K
  solubility (mole fraction): 0.0271
In n-butanol, 313.25 K
  solubility (mole fraction): 0.0372
In n-butanol, 318.15 K
  solubility (mole fraction): 0.0516
In n-butanol, 323.15 K
  solubility (mole fraction): 0.0679
In o-xylene, 273.35 K
  solubility (mole fraction): 0.000297
In o-xylene, 278.15 K
  solubility (mole fraction): 0.000431
In o-xylene, 283.15 K
  solubility (mole fraction): 0.00064
In o-xylene, 287.95 K
  solubility (mole fraction): 0.000899
In o-xylene, 293.05 K
  solubility (mole fraction): 0.00138
In o-xylene, 298.15 K
  solubility (mole fraction): 0.00203
In o-xylene, 303.15 K
  solubility (mole fraction): 0.00305
In o-xylene, 308.35 K
  solubility (mole fraction): 0.00443
In o-xylene, 313.15 K
  solubility (mole fraction): 0.00656
In o-xylene, 318.15 K
  solubility (mole fraction): 0.00904
In toluene, 274.15 K
  solubility (mole fraction): 0.000608
In toluene, 278.15 K
  solubility (mole fraction): 0.000971
In toluene, 283.15 K
  solubility (mole fraction): 0.00176
In toluene, 288.15 K
  solubility (mole fraction): 0.00306
In toluene, 293.15 K
  solubility (mole fraction): 0.00522
In toluene, 298.15 K
  solubility (mole fraction): 0.00861
In toluene, 303.15 K
  solubility (mole fraction): 0.0139
In toluene, 308.15 K
  solubility (mole fraction): 0.024
In toluene, 313.25 K
  solubility (mole fraction): 0.0292
In toluene, 318.15 K
  solubility (mole fraction): 0.0413
